# In patent publication US20030022878A1, “TELOMERASE INHIBITOR” (priority 1997, published 2003):
# Values joined by “and” are separate entries in the source; they are usually repeats but may differ in a detail not shown here. Equal entries are not always repeated.
# Experiments:
# telomerase = biological target: T1, telomerase (Homo sapiens, UniProt O14746); assay: Telomerase inhibiting activity in cell-free system (TRAP method); type: biochemical
# T1 construct: the resulting extract was centrifuged to obtain the supernatant as a cell extract for activity measurement; endogenous in cells
# T1 sequence (O14746 whole entry): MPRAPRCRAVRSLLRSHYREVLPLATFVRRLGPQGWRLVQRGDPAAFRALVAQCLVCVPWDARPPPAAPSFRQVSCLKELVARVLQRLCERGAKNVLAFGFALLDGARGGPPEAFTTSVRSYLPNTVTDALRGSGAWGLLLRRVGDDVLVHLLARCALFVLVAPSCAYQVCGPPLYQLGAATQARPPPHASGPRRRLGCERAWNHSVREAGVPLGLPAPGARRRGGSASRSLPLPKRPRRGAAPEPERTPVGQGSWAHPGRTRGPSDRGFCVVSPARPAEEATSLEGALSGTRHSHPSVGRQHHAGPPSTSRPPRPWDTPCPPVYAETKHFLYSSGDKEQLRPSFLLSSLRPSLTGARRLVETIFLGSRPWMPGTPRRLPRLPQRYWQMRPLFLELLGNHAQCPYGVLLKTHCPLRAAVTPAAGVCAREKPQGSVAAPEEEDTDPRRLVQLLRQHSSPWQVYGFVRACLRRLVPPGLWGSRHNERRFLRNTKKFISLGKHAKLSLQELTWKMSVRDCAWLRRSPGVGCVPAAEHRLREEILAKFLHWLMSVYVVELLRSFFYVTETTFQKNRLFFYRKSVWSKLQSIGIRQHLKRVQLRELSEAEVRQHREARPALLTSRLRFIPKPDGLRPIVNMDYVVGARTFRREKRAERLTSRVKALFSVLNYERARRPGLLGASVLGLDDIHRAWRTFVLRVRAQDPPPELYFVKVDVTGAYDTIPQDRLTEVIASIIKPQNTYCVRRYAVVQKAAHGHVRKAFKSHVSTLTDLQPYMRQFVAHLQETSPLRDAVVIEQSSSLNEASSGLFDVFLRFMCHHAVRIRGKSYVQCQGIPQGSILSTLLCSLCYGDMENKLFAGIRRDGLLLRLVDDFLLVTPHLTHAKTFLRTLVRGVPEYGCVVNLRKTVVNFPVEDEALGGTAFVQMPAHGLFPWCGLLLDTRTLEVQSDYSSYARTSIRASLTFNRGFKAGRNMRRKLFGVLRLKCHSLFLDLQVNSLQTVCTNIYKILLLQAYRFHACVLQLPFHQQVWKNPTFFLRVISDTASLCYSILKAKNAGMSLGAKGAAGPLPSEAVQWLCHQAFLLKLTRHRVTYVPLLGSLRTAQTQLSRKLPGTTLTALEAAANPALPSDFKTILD
# Method: Telomerase inhibiting activity of EGCG, EGC, ECG, and EC (all products of Sigma) was measured according to the Telomeric Repeat Amplification Protocol (TRAP) method described by Kim et al. (Kim, N. W. et al., Science, 266, 2011-2015, 1994) as follows:
# Cells were washed with ice-cold PBS (phosphate buffered saline) and suspended again in PBS to count the cells. After centrifuging this cell suspension, the resulting cell mass was suspended in a TRAP assay buffer (10 mM Tris-HCl, pH 7.5, 1 mM MgCl2, 1 mM EDTA, 0.5% CHAPS, 10% glycerine, 5 mM 2-mercaptoethanol, and 0.1 mM 4-(2-aminoethyl)-benzenesulfonyl fluoride hydrochlorine), then the suspension was quick-frozen with liquid nitrogen. After melting, the suspension was allowed to stand in an ice bath for 30 minutes for extraction, then the resulting extract was centrifuged to obtain the supernatant as a cell extract for activity measurement. […]
# The PCR products obtained in the abovementioned procedure were resolved by polyacrylamide gel electrophoresis and the resulting DNA bands stained with SYBR Green (Takara Shuzo) were detected by irradiation with a UV transilluminator.
# The detected bands were photographed. The intensity of each band was quantitatively analyzed using the NIH Image 1.60 software program. Telomerase activity was expressed as the intensity of a sample band relative to that of the band corresponding to the ITAS fragment (control).
# Telomerase activity in reaction solutions of 8 different EGCG concentrations ranging from 0.1 to 20 μM was measured in the same manner as described in Example 1 except that a primer, PS, was used at two different concentrations. […]
# Telomerase activity in reaction solutions containing powder sample 1 obtained in Production Example 1, powder sample 2 (a tea catechin extract: THEA-FLAN 90S, a trade name, a product of ITO EN, Ltd), and EGCG at different concentrations in the following ranges was measured in the same manner as described in Example 1. […]
# [1] = biological target: T2, intracellular telomerase activity, colon adenocarcinoma HT29 cells (Homo sapiens, UniProt O14746); assay: Telomerase inhibiting activity in cells (Streptolysin O permeabilization, TRAP); type: cell-based; conditions: 15 μM EGCG for 2 hours
# T2 construct: endogenous in cells; host or cells: HT29
# T2 sequence (O14746 whole entry): as above
# Method: (§1) The telomerase inhibiting activity of EGCG was assayed in monoblastoid leukemia U937 cells (American Type Culture Collection, ATCC) and colon adenocarcinoma HT29 cells.
# (§2) An RPMI1640 medium (Nissui) supplemented with 10% fetal bovine serum (FBS) was used for U937 cells, and an RPMI1640 medium supplemented with 5% FBS and 5% fetal calf serum (FCS) was used for HT29 cells.
# (§3) The cells were incubated in a 15 μM EGCG solution for 2 hours and washed in PBS. The washed cells were suspended in an RPMI1640 medium (without serum) at a concentration of 2×10^6 cells/ml, then Streptolysin O (Sigma, 5 U/ml), TS primer (10 μM), spermidine (1 mM), and Imipramine (50 μM) were added, and the admixture was incubated at room temperature for 10 minutes. Streptolysin O is a substance which increases the permeability of a substance through the cell membrane, and enables the TS primers and other substances to be incorporated into the cell. […]
# (§4) The telomerase products thus obtained were resolved by polyacrylamide gel electrophoresis, after which DNA bands were stained with SYBR Green (Takara Shuzo) and detected by irradiation with a UV transilluminator. The intensity of each band was quantitatively analyzed using the NIH Image 1.60 software program and telomerase activity was expressed as the intensity of a sample band relative to that of the band corresponding to the ITAS fragment (control). […]
# [2] = biological target: T3, intracellular telomerase activity, monoblastoid leukemia U937 cells (Homo sapiens, UniProt O14746); assay: as above; type: cell-based; conditions: 15 μM EGCG for 2 hours
# T3 construct: endogenous in cells; host or cells: U937
# T3 sequence (O14746 whole entry): as above
# Method: as §1, §2, §3, §4
# telomerase, HT29 cells = biological target: T4, telomerase, HT29 cells (Homo sapiens, UniProt O14746); assay: Telomerase activity in extract of EGCG-treated cells (mechanism); type: cell-based; conditions: 15 μM EGCG for 2 hours, washed, extracted
# T4 construct: endogenous in cells; host or cells: HT29
# T4 sequence (O14746 whole entry): as above
# Method: (§5) The cells were treated with 15 μM EGCG for 2 hours and washed with ice-cold PBS. The cell mass obtained by centrifugation was suspended in a TRAP assay buffer and the resulting suspension was quick-frozen with liquid nitrogen. After melting, the suspension was allowed to stand in an ice bath for 30 minutes, then the resulting extract was centrifuged to obtain the supernatant as a cell extract. A test compound, TS primer (50 ng), 50 μM dNTPs, and T4g32 protein (Behringer-Manheim) were added to a specified volume of the cell extract (corresponding to 200 to 1000 cells), and the admixture was incubated at 20° C. for 30 minutes. After reaction, CX primer (100 ng) was added to the reaction solution, then PCR was performed in the presence of Gene Taq DNA polymerase (2 U) and ITAS (10^−18 g), i.e., (94° C., 40 seconds→50° C., 40 seconds→72° C., 60 seconds)×30 cycles→72° C., 2 minutes, to obtain PCR products. The PCR products thus obtained were resolved by polyacrylamide gel electrophoresis and the resulting DNA bands stained with SYBR Green (Takara Shuzo) were detected by irradiation with a UV transilluminator. The intensity of each band was quantitatively analyzed using the NIH Image 1.60 software program. Telomerase activity was expressed as the intensity of a sample band relative to that of the band corresponding to the ITAS fragment. […]
# telomerase, U937 cells = biological target: T5, telomerase, U937 cells (Homo sapiens, UniProt O14746); assay: as above; type: cell-based; conditions: 15 μM EGCG for 2 hours, washed, extracted
# T5 construct: endogenous in cells; host or cells: U937
# T5 sequence (O14746 whole entry): as above
# Method: as §5
# HT29 cells [3] = assay: Effect of EGCG on cell growth in subculture; type: cell-based; conditions: HT29 subculture lines, medium with 15 μM EGCG
# Method: (§6) U937 cells and HT29 cells were each subcultured on a medium with and without EGCG to study the effect of addition of EGCG on cell growth. The medium used was the same as used in Example 4. Five subculture lines for U937 cells and nine subculture lines for HT29 cells were prepared. The first culture of each line was made by inoculating cells of each stock culture at a density of 5×10^5 cells per 10-cm dish. For each subculture, two lines were cultured on a medium without EGCG (control lines) and the rest of the lines were cultured on a medium supplemented with 15 μM EGCG. Cells were passaged, sampled and counted every four days. The incubation medium was freshly changed every day. […] PD is the number of cycles in which the cell population doubles during cell growth and is calculated by monitoring cell counts using a hemocytometer.
# U937 cells = assay: Effect of EGCG on cell growth in subculture; type: cell-based; conditions: U937 subculture lines, medium with 15 μM EGCG
# Method: as §6
# HT29 cells [4] = assay: TRF (telomere) length by Southern blotting; type: cell-based; conditions: HT29 cells in crisis, 15 μM EGCG
# Method: HT 29 cells from PD57 to PD60 in cell crisis were pooled and the genomic DNA was prepared by a salting-out/ethanol precipitation method (Stratagene). Further, integrity of the isolated genomic DNA was confirmed by gel electrophoresis (ethidium bromide staining).
# The isolated genomic DNA (10 μg) was digested with HinfI and RsaI and the resulting digests were subjected to Southern blotting by the ordinary method, after which DNA fragments were detected using a TeloQuant assay kit (PharmMingen).
# Accordingly, if a genomic DNA is digested with the abovementioned restriction enzymes, only the telomere region would remain undigested. This DNA fragment is called the Terminal Restriction Fragment (TRF) which can be detected by Southern blotting to analyze telomere lengths. TRFs of EGCG-treated or untreated HT29 cells obtained as mentioned above were detected using a TeloQuant assay kit. […] It was observed that TRFs in the cells which entered crisis due to the EGCG treatment (●) were shortened by about 1.1 kb as compared to those in the untreated cells (◯). Further, it was confirmed that successive EGCG treatment of HT29 cells caused telomere diminishment.
# [5] = system: experimentally-induced tumors; conditions: nude mice with experimentally-induced tumors; cited from earlier work
# malignant melanoma cells = conditions: oral administration; cited from earlier work
substance,measurement,setting,value
(−) epigallocatechin gallate [EGCG],Ki,"telomerase; Dixon plot, EGCG 0.1 to 20 μM, primer at two concentrations",~100 nM
same,telomerase inhibiting activity compared among catechins (FIG. 1),"telomerase; TRAP, cell extract",highest inhibiting activity
same,"Telomerase inhibition, IC50","telomerase; concentration suppressing DNA amplification of control by 50%, samples tested in μg/ml ranges",0.25
same,intracellular telomerase activity,[1],markedly inhibited
same,intracellular telomerase activity,[2],markedly inhibited
same,telomerase activity tested in vitro in extract after treatment of cells,"telomerase, HT29 cells",no effect
same,telomerase activity tested in vitro in extract after treatment of cells,"telomerase, U937 cells",no effect
same,day at which cells entered cell crisis,HT29 cells [3],75 days and 57 days
same,day at which cells entered cell crisis,U937 cells,53 days and 44 days and 29 days
same,shortening of TRFs compared to untreated cells,HT29 cells [4],about 1.1 kb
same,cancer cell growth in nude mice,[5],effectively suppressed
same,metastasis of malignant melanoma cells,malignant melanoma cells,suppressed
